The results in this text go back to PubChem BioAssay (NCI).

Among the test systems are XF 498 CNS; HOP-18 NSCLC; MDA-N; KM20L2 colon; DLD-1 colon; SNB-78 CNS; M19-MEL melanoma; RXF-631 renal; DMS 114 small cell lung.
What all share (test): NCI tumour cell line growth inhibition, 48 h

Several values for one entry are separate records, joined by “and”; a condition that tells them apart may be missing. Identical values can stand only once.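 Values below derive from 48-hour exposures of cells grown in 96-well plates, with endpoints linearly interpolated between the two concentrations bracketing the appropriate inhibition level. GI50 = concentration required for 50% inhibition of growth. TGI: total growth inhibition.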

On to `CC1CC2C3CCC4=CC(=O)C=CC4(C)C3(F)C(O)CC2(C)C1(O)C(=O)COP(=O)(O)O` (configuration not stated), for which the TGI is > 100 µM with XF 498 CNS; > 100 µM in the assay on HOP-18 NSCLC; 47.4 µM in the assay with MDA-N; > 100 µM in the assay with KM20L2 colon; > 100 µM in the assay on DLD-1 colon; > 100 µM in the assay on SNB-78 CNS. In addition, in the assay on M19-MEL melanoma, the TGI is > 100 µM.

For `Nc1ccc2n[se]nc2c1`, the TGI in the assay with XF 498 CNS, with HOP-18 NSCLC, in the assay on RXF-631 renal, in the assay with DMS 114 small cell lung, in the assay with KM20L2 colon and in the assay with DLD-1 colon was > 100 µM throughout. The TGI in the assay on SNB-78 CNS and in the assay with M19-MEL melanoma was > 100 µM throughout.

As for `COC(=O)CCSC(=O)Nc1ccc(N=Nc2ccccc2)cc1`, the TGI with XF 498 CNS is > 100 µM; in the assay with HOP-18 NSCLC it was > 100 µM; in the assay with RXF-631 renal, > 100 µM; in the assay on DMS 114 small cell lung it was > 100 µM; with KM20L2 colon, 76.3 µM; in the assay on DLD-1 colon, > 100 µM. In addition, the TGI in the assay on SNB-78 CNS and with M19-MEL melanoma was > 100 µM each time.

Consider `COc1ccc(-c2cc(=O)c3c(O)c(OC)c(OC)c(OC)c3o2)cc1OC`, for which the TGI with MDA-N was > 100 µM.

`NC(=O)c1ccc2c(c1)-c1nc-2nc2[n-]c(nc3nc(nc4[n-]c(n1)c1ccc(C(N)=O)cc41)-c1ccc(C(N)=O)cc1-3)c1ccc(C(N)=O)cc21.[Co+2]`: the GI50 in the assay on HOP-18 NSCLC is > 50 µM; in the assay with RXF-631 renal it was > 50 µM; with DMS 114 small cell lung, 19.6 µM; in the assay on KM20L2 colon, > 50 µM; with DLD-1 colon, 43.5 µM; with SNB-78 CNS, > 50 µM. The TGI with HOP-18 NSCLC, in the assay with RXF-631 renal, in the assay on DMS 114 small cell lung, in the assay on KM20L2 colon, in the assay on DLD-1 colon and with SNB-78 CNS was > 50 µM in each case.

Consider `COC(=O)C(=O)Cc1nc2ccccc2s1`, for which the TGI in the assay on HOP-18 NSCLC, in the assay on DMS 114 small cell lung, in the assay on KM20L2 colon, in the assay on DLD-1 colon, in the assay on SNB-78 CNS and in the assay with M19-MEL melanoma was > 100 µM each time.

On to `NC1NC=NC2C1N=CN2C1OC(CO)C2[O][Sn][O]C21` (configuration not stated), for which the GI50 with XF 498 CNS is 1.15 µM; in the assay on HOP-18 NSCLC, > 100 µM; with DMS 114 small cell lung, > 100 µM; in the assay on KM20L2 colon it was > 100 µM; with SNB-78 CNS, > 100 µM; with M19-MEL melanoma, > 100 µM. Besides, the TGI in the assay with XF 498 CNS is 52.7 µM; with HOP-18 NSCLC it was > 100 µM; with DMS 114 small cell lung it was > 100 µM; with KM20L2 colon, > 100 µM; in the assay with SNB-78 CNS, > 100 µM; with M19-MEL melanoma, > 100 µM.

Consider `O=C(O)C1=C/C(=C(/c2ccccc2)c2cc(C(=O)O)c(O)c3ccccc23)c2ccccc2C1=O`, for which the TGI in the assay on MDA-N is > 100 µM.

As to `CC(=O)OCC1OC(n2c(=S)n(-c3ccc([N+](=O)[O-])cc3)c(=O)c3ccccc32)C(OC(C)=O)C(OC(C)=O)C1OC(C)=O` (configuration not stated), the TGI with HOP-18 NSCLC is 64.4 µM; with RXF-631 renal, 57.7 µM and 51 µM; in the assay on DMS 114 small cell lung it was > 100 µM and 53.8 µM; in the assay on MDA-N, 82.3 µM; in the assay with KM20L2 colon, > 100 µM and 87.7 µM; in the assay with DLD-1 colon, > 100 µM. In addition, the TGI in the assay on SNB-78 CNS was > 100 µM and 74.5 µM; in the assay with M19-MEL melanoma, > 100 µM and 55.4 µM. Also, the GI50 in the assay with DMS 114 small cell lung was 23.7 µM and 18.1 µM; in the assay on DLD-1 colon, 21.9 µM and 30.4 µM; with SNB-78 CNS, 34.8 µM and 24.1 µM; in the assay with M19-MEL melanoma, 29.7 µM and 16.8 µM.

For `CCOC(=O)C(C)(NC(=O)c1ccc(NCc2ccc3nc(NC(=O)c4ccccc4)nc(NC(=O)c4ccccc4)c3c2)cc1)C(=O)OCC`, the TGI in the assay with HOP-18 NSCLC is > 100 µM; in the assay with RXF-631 renal it was 51 µM; with DMS 114 small cell lung it was 42 µM; in the assay with KM20L2 colon, 85.3 µM; with DLD-1 colon, > 100 µM; in the assay on SNB-78 CNS, 45.4 µM. This compound also returned a TGI in the assay on M19-MEL melanoma of 24.9 µM.

For `COc1cc[c]([Sn]([c]2ccc(OC)cc2)([c]2ccc(OC)cc2)[c]2ccc(OC)cc2)cc1`, the GI50 is > 100 µM with XF 498 CNS; 3.81 µM in the assay with HOP-18 NSCLC; 23.5 µM in the assay on DMS 114 small cell lung; 18.2 µM with KM20L2 colon; 23.7 µM in the assay on SNB-78 CNS; 34.6 µM in the assay on M19-MEL melanoma. The TGI was > 100 µM in the assay with XF 498 CNS; 21.1 µM with HOP-18 NSCLC; > 100 µM with DMS 114 small cell lung; 47 µM in the assay with KM20L2 colon; 71 µM with SNB-78 CNS; > 100 µM in the assay on M19-MEL melanoma.

Consider `CC(C)(CN1C(=O)C(Cl)=C(Cl)C1=O)CN1C(=O)C(Cl)=C(Cl)C1=O`, for which the TGI in the assay on HOP-18 NSCLC is 36.1 µM; in the assay on DMS 114 small cell lung it was 25.2 µM; in the assay with KM20L2 colon, 40 µM; in the assay with DLD-1 colon, 9.82 µM; in the assay with SNB-78 CNS, 45.1 µM; with M19-MEL melanoma it was 25 µM.

Regarding `Cc1nc(N)nc(N)c1CCCCc1ccc(N)cc1`, the TGI with XF 498 CNS turned out to be 23.6 µM; in the assay with KM20L2 colon, 18.2 µM; with DLD-1 colon, 31.6 µM; in the assay on SNB-78 CNS it was 27.2 µM; in the assay on M19-MEL melanoma it was 25.5 µM.

As to `CN(C)CCNC(=O)c1cccc2c1nc(-c1ccc(F)cc1)c1ccccc12`, the TGI in the assay on HOP-18 NSCLC was 27.4 µM; in the assay on DMS 114 small cell lung, 19.2 µM; in the assay on DLD-1 colon, 15 µM; in the assay with SNB-78 CNS, 25.7 µM; in the assay on M19-MEL melanoma, 18.6 µM.

Consider `O=[N+]([O-])c1ccc(C2=Nc3ccccc3S(=O)C(c3ccccc3)C2)cc1` (configuration not stated), for which the TGI in the assay with XF 498 CNS is 47.9 µM; with HOP-18 NSCLC, > 100 µM; in the assay with RXF-631 renal it was 40.1 µM; in the assay on DMS 114 small cell lung, 42.8 µM; in the assay with KM20L2 colon, 57.8 µM; in the assay on DLD-1 colon it was 38.4 µM. The compound also registered a TGI in the assay with M19-MEL melanoma of 29.6 µM.

Take `N#CCCn1[nH]c(=O)c(Cl)c(Cl)c1=O`: the TGI in the assay on XF 498 CNS was 29.6 µM; in the assay on HOP-18 NSCLC it was 30.6 µM; in the assay with RXF-631 renal it was 37.1 µM; in the assay on DMS 114 small cell lung, 36.5 µM; in the assay on KM20L2 colon, 29.7 µM; in the assay on DLD-1 colon it was 27 µM. The TGI in the assay with SNB-78 CNS was 41.9 µM; with M19-MEL melanoma, 42 µM.
